In patent publication US4117148A, “2,9-Dioxatricyclo [4,3,1,0,3,7] decane derivatives, processes for their preparation and pharmaceutical compositions thereof” (Kali-Chemie Pharma GmbH., priority 1977, dated 1978):
Read-outs that look alike come from different tables or passages of the source.

What was measured:
[1] = system: phenyl benzoquinone syndrome in mice; assay: Phenyl benzoquinone syndrome (writhing test), analgesic activity; format: in vivo, mouse; conditions: for ED50: Mus musculus, po, read-out: Analgesic activity, inhibition of PBC-syndrome, ED50
[2] = system: rat's paw; assay: Randall-Selitto-Test, pressure pain threshold in the rat's paw (antiphlogistic/analgesic); format: in vivo; conditions: for ED50: Rattus norvegicus, sc
[3] = Acute toxicity, LD50 after i.p. administration; format: in vivo; conditions: mouse, in vivo, ip, mice
Method: (§1) The toxicity of the 3-azidomethyl-2,9-dioxatricyclo[4,3,1,0^3,7 ] decanes of the formula (I) is extremely low. The LD50 in mice is in the range of between about 500 and about 700 mg/kg, when determined after i.p. administration of the compounds.

[4] = system: mice; assay: Acute toxicity, LD50 after i.p. administration; format: in vivo
Method: as §1

[5] = normal paw, read-out: Randall Selitto-test ED50, normal paw
[6] = oedema bearing paw, read-out: Randall Selitto-test ED50, oedema bearing paw

## CC(=O)Oc1ccccc1C(=O)O [Apsirin, reference compound]
[1]
  ED50: 240 mg/kg
[2]; [5]
  ED50: > 700 mg/kg
[2]; [6]
  ED50: 440 mg/kg

## COc1ccc2c(c1)c(CC(=O)O)c(C)n2C(=O)c1ccc(Cl)cc1 [Indomethazine, reference compound]
[2]; [5]
  ED50: 250 mg/kg
[2]; [6]
  ED50: 64 mg/kg

## COc1ccc2cc([C@H](C)C(=O)O)ccc2c1 [Naproxene, reference compound]
[1]; mouse, p.o.
  ED50: 30 mg/kg
[2]; [5]
  ED50: 250 mg/kg
[2]; [6]
  ED50: 147 mg/kg

## CCCCC1C(=O)N(c2ccccc2)N(c2ccccc2)C1=O [Phenylbutazone, reference compound]
[1]; mouse, p.o.
  ED50: > 30 mg/kg
[2]; [5]
  ED50: > 100 mg/kg
[2]; [6]
  ED50: 58 mg/kg

## COC1OC2OC3(CN=[N+]=[N-])C(OC(C)=O)CC(C2C)C13 (stereo not drawn) [X, 3-azidomethyl-4β-acetoxy-8-methoxy-10β-methyl-2,9-DTD]
[3]
  LD50: 739 mg/kg
[1]; mouse, p.o.
  Analgesic activity, inhibition of PBC-syndrome, ED50: ~ 10 mg/kg
[2]; [5]
  ED50: > 32 mg/kg
[2]; s.c., oedema bearing paw
  Randall Selitto-test ED50, oedema bearing paw: > 32 mg/kg

## COC1OC2OC3(CN=[N+]=[N-])C(=O)CC(C2C)C13 (stereo not drawn) [XVIII, 3-azidomethyl-8-methoxy-10β-methyl-2,9-DTD-4-one]
[3]
  LD50: 632 mg/kg
[1]; mouse, p.o.
  ED50: < 56 mg/kg
[2]; [5]
  ED50: > 100 mg/kg
[2]; [6]
  ED50: > 100 mg/kg

## COC1OC2OC3(CN=[N+]=[N-])C(O)CC(C2C)C13 (stereo not drawn) [XXII, 3-azidomethyl-4α-hydroxy-8-methoxy-10β-methyl-2,9-DTD]
[3]
  LD50: 571 mg/kg
[1]; mouse, p.o.
  ED50: 18.5 mg/kg
[2]; [5]
  ED50: > 32 mg/kg
[2]; [6]
  ED50: > 32 mg/kg

## C=C1C2OC(OC)C3C1CC(OC(C)=O)C3(CN=[N+]=[N-])O2 (stereo not drawn) [XXV, 3-azidomethyl-4α-acetoxy-8-methoxy-10-methylene-2,9-DTD]
[1]; mouse, p.o.
  ED50: ~56 mg/kg
[2]; [5]
  ED50: 100 mg/kg
[2]; [6]
  ED50: 100 mg/kg

## COC1OC2OC3(CN=[N+]=[N-])C(OC(C)=O)CC(C2C)C13 (stereo not drawn) [XXVI, 3-azidomethyl-4α-acetoxy-8-methoxy-10β-methyl-2,9-DTD]
[4]
  LD50: 574 mg/kg
[1]; mouse, p.o.
  Analgesic activity, inhibition of PBC-syndrome, ED50: < 3.2 mg/kg
[2]; s.c., normal paw
  Randall Selitto-test ED50, normal paw: ~ 32 mg/kg
[2]; s.c., oedema bearing paw
  Randall Selitto-test ED50, oedema bearing paw: 15 mg/kg
